Laboratory results reported in patent publication US9186334B2 (Nuvo Research Inc., priority 2009, dated 2015).

Conditions: transdermal, 12 subjects
Method: Specifically, a single site, open label study was conducted on 12 subjects, with 4-way cross-over. Four (4) patches were applied for 2, 4, or 12 hours.

Compound: CCN(CC)CC(=O)Nc1c(C)cccc1C [lidocaine]
- rate of delivery, heated patch versus unheated patch: more rapidly
